From the NIST ThermoML archive (doi:10.1016/j.fluid.2004.11.019)

Test: xn = mol fraction of the nth substance listed
Details: 323.15 K, Liquid

CCO [ethanol] + O
mass density [kg/m3]
Details	20000 kPa	30000 kPa	40000 kPa
x1 = 0.003	–	999	1003.1
x1 = 0.0042	–	998	1002
x1 = 0.0082	–	996.5	1000.5
x1 = 0.0119	–	995.2	999.2
x1 = 0.0158	–	993	996.9
x1 = 0.0184	–	991.5	995.5
x1 = 0.0219	–	990.4	994.4
x1 = 0.0255	–	988.7	992.7
x1 = 0.0279	–	987.1	991.1
x1 = 0.0315	–	986.3	990.2
x1 = 0.0366	–	983.6	987.6
x1 = 0.0392	–	982.4	986.3
x1 = 0.0439	–	980.8	984.7
x1 = 0.0483	–	978.8	982.7
x1 = 0.0516	–	978	982
x1 = 0.0559	–	976.6	980.5
x1 = 0.06	–	975.1	979.1
x1 = 0.0652	–	973.1	977
x1 = 0.0679	–	972.3	976.3
x1 = 0.0722	–	970.5	974.4
x1 = 0.0801	–	967.4	–
x1 = 0.084	–	967	–
x1 = 0.0879	–	965.3	–
x1 = 0.0926	–	963.7	–
x1 = 0.0958	–	962.6	–
x1 = 0.1006	–	961	–
x1 = 0.1111	–	957.3	–
x1 = 0.1225	949.2	953.4	–
x1 = 0.1296	946.9	951.1	–
x1 = 0.1402	943.3	947.6	–
x1 = 0.151	939.7	944	–
x1 = 0.1601	936.7	941.1	–
x1 = 0.1703	933.3	937.7	–
x1 = 0.18	930.1	934.6	–
x1 = 0.1903	926.8	931.4	–
x1 = 0.1996	923.8	928.4	–
x1 = 0.2269	915.3	920.1	–
x1 = 0.2502	908.5	913.5	–
x1 = 0.2745	901.6	906.7	–
x1 = 0.3009	894.7	899.8	–
x1 = 0.35	882.1	887.5	–
x1 = 0.4034	869.8	875.5	–
x1 = 0.4501	859.7	865.7	–
x1 = 0.498	850.6	856.8	–
x1 = 0.5501	841.2	847.6	–
x1 = 0.5998	833.5	839.6	–
x1 = 0.6489	825.3	832.1	–
x1 = 0.6967	818.4	825.4	–
x1 = 0.7475	811.7	818.8	–
x1 = 0.7996	804.9	812.3	–
x1 = 0.8484	799.1	806.6	–
x1 = 0.8993	793.2	800.9	–
x1 = 0.9503	787.7	795.6	–
x1 = 1	782.3	790.3	–
